For data set [1], the system named is [^3 H]-adenosine uptake by washed erythrocytes. Description: Inhibitory effect on [^3 H]-adenosine uptake (washed erythrocytes). The format is cell-based, human (healthy male adult). Particulars: Erythrocyte; human washed erythrocytes; 1 hour preincubation at room temperature; 10 seconds uptake; read-out: [^3 H]-Adenosine Uptake Inhibition IC50. As for the experimental part:
Test Example 1 Inhibitory Effect on [^3 H]-Adenosine Uptake
[…] To 100 μl of an erythrocyte suspension (2.5×10^9 /ml) was added 10 μl of a 21% DMSO solution of a test compound. After allowing the suspension to stand at room temperature for 1 hour, 100 μl of a [^3 H]-adenosine solution was added thereto. Ten seconds later, 200 μl of a dilazep solution (1 mg/ml) was added to stop the reaction. The erythrocytes were dissolved in Triton X-100, and the uptake amount of ^3 H was measured with a liquid scintillation counter. The concentration of the test compound which inhibits the [^3 H]-adenosine uptake by 50% (IC50) was calculated.

Data set [2] concerns the target T1, [^3 H]-Nitrobenzylthioinosine (NBI) binding, cerebral cortex tissue homogenate (Cavia porcellus, UniProt H0V4R7).
T1 construct: The cerebral cortex of a male guinea pig of Hartley strain was homogenized; from tissue; host or cells: guinea pig (male, Hartley strain) cerebral cortex, washed membrane suspension
T1 sequence (H0V4R7 1-461): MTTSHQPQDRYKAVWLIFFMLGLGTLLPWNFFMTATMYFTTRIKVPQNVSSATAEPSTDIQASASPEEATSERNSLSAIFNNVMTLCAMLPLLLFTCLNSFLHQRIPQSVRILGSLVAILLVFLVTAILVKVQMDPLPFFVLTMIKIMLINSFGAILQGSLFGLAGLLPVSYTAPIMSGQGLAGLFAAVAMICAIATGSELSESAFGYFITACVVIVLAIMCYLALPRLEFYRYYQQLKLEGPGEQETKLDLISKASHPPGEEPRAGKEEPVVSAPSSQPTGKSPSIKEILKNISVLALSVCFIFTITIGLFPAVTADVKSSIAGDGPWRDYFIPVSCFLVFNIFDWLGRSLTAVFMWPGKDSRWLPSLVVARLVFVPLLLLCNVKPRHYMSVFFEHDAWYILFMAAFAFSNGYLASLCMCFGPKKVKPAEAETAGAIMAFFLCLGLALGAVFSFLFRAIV
The data set can be described thus: Inhibitory effect on [^3 H]-nitrobenzylthioinosine (NBI) binding. The arrangement: species or system guinea pig (Hartley strain, male). Particulars: guinea pig cerebral cortex; 1.5 nM [^3 H]-NBI; 25° C., 30 minutes; Cheng-Prusoff. As for the experimental part:
Test Example 2 Inhibitory Effect on [^3 H]-Nitrobenzylthioinosine (NBI) Binding (an indication of adenosine uptake inhibitory activity)
The cerebral cortex of a male guinea pig of Hartley strain was homogenized with an ice-cooled 50 mM tris-HCl buffer (pH 7.4) in an amount of 25 times (w/v) that of the tissue. The homogenate was centrifuged (30,000×g, 4° C., 20 mins.), and the supernatant was discarded. To the precipitate was added the same amount of the buffer, followed by homogenization and then centrifugation in the same manner as above. The obtained precipitate was suspended in 20 times as much buffer as the precipitate to prepare a suspension for testing.
To a DMSO solution of a test compound were added 1.5 nM of [^3 H]-NBI and 5 mg (wet basis) of the tissue homogenate, and the mixture was allowed to stand at 25° C. for 30 minutes. To the mixture was added 4 ml of an ice-cooled buffer, followed by rapid filtration with suction through a glass filter (GF/C, produced by Whatman Ltd.) or a Ready filter (produced by Beckman Co.) to stop the reaction. The filter was transferred to a scintillation vial, and after drying, Scintisol EX-H was added thereto. The radioactivity was measured with a liquid scintillation counter. The binding inhibitory activity was expressed in terms of an inhibition constant (Ki value) as calculated according to Cheng-Prusoff's formula.

Data set [3] in a line: Inhibitory effect on ischemic paw edema in mice. The format is in vivo, mouse (ddY-strain, male). Particulars: 30 mg/kg orally 1 hour before 20 min ischemia; for Paw Edema Supression Rate After 20 minutes: 20 minutes after blood recirculation; for Paw Edema Supression Rate After 40 minutes: 40 minutes after blood recirculation; for Paw Edema Supression Rate After 60 minutes: 60 minutes after blood recirculation. An excerpt:
Test Example 3 Inhibitory Effect on Ischemic Paw Edema in Mice
Ischemia followed by reperfusion in the limb of a mouse induces paw edema due to membrane injury in which active oxygen is involved [Arzneim.-Forsch., 41, 469-474 (1991)]. In general, peroxidation of membrane lipid and calcium influx into cells play roles in ischemia-reperfusion injury [Life Science, 29, 1289-1295 (1981); Japan J. Pharmacol., 52, 553-562 (1990)]. It is active oxygen production that triggers these factors, and the source of active oxygen includes endothelial cells and leukocytes [J. Mol. Cell Cardiol., 20 (Suppl. II), 55-63 (1988); Blood, 73, 301-306 (1989)]. […] J. Physiol., 257, H1334-1339 (1989); J. Immunol., 135, 1366-1371 (1985)]. Accordingly, it is believed that a compound effective on an ischemic podedema model in mice as hereinafter described would provide a convenient and useful model for evaluating an adenosine uptake inhibitor.
Experiments were conducted in accordance with the method described in Arzneim.-Forsch., 41, 469-474 (1991). A test compound was suspended in water and orally given to grouped male mice of ddY-strain weighing 25 to 30 g at a dose of 30 mg/kg. One hour later, the left hind limb was bound with a rubber band for 20 minutes to cause ischemia, and 20, 40 and 60 minutes after blood recirculation, the paw thickness was measured with a pair of calipers (Digimatic Caliper manufactured by Mitsutoyo K.K.). The paw edema was determined as the difference in thickness between the left hind paw (ischemia-treated) and the non-treated right one. Each result was expressed in terms of percent suppression of edema in a test compound group on the basis of the edema in a control group.

Data set [4] has as its system ddY-strain male mice. Description: Acute toxicity test. The format is in vivo. Particulars: mortality seven days after administration. The text has this: Test Example 4 Acute Toxicity Test
A test compound was intraperitoneally or orally administered to groups of ddY-strain male mice weighing 20±1 g, each group consisting of three mice.

Consider `COc1cc2ncnc(N3CCC(n4c(=O)c5cc([N+](=O)[O-])ccc5n(C)c4=O)CC3)c2cc1OC` [Compound 1, 3-[1-(6,7-Dimethoxy-4-quinazolinyl)-4-piperidinyl]-1,2,3,4-tetrahydro-1-methyl-6-nitro-2,4-dioxoquinazoline], for which, in data set [1], the 50% inhibitory concentration (IC50) was 0.042 µM. The same molecule showed a Ki in data set [2] of 0.018 µM.

Turning to `CCn1c(=O)n(C2CCN(c3ncnc4cc(OC)c(OC)cc34)CC2)c(=O)c2cc([N+](=O)[O-])ccc21` [Compound 2, 3-[1-(6,7-Dimethoxy-4-quinazolinyl)-4-piperidinyl]-1-ethyl-1,2,3,4-tetrahydro-6-nitro-2,4-dioxoquinazoline], in data set [1], the IC50 amounted to 0.103 µM. The Ki in data set [2] turned out to be 0.018 µM. In data set [3], the “Paw Edema Supression Rate After 20 minutes” value stood at 4.1 ± 2.98%, the “Paw Edema Supression Rate After 40 minutes” value was 9.0 ± 3.79% and the “Paw Edema Supression Rate After 60 minutes” value is reported as 15.5 ± 4.09%. Moreover, in data set [4], the “minimum lethal dose (MLD) i.p.” value was greater than 100 mg/kg and the “minimum lethal dose (MLD) p.o.” value is on record as greater than 300 mg/kg.

Turning to `CCCn1c(=O)n(C2CCN(c3ncnc4cc(OC)c(OC)cc34)CC2)c(=O)c2cc([N+](=O)[O-])ccc21` [Compound 3, 3-[1-(6,7-Dimethoxy-4-quinazolinyl)-4-piperidinyl]-1,2,3,4-tetrahydro-6-nitro-2,4-dioxo-1-propyl-quinazoline], in data set [1], the IC50 stood at 0.062 µM. The molecule also had a Ki in data set [2] of 0.0043 µM. In addition, in data set [3], the “Paw Edema Supression Rate After 20 minutes” value is 4.8 ± 4.40%, the “Paw Edema Supression Rate After 40 minutes” value was 11.6 ± 2.68% and the “Paw Edema Supression Rate After 60 minutes” value was 14.9 ± 3.58%. In data set [4], the “minimum lethal dose (MLD) i.p.” value was greater than 100 mg/kg and the “minimum lethal dose (MLD) p.o.” value is recorded as greater than 300 mg/kg.

Regarding `CCOC(=O)Cn1c(=O)n(C2CCN(c3ncnc4cc(OC)c(OC)cc34)CC2)c(=O)c2cc([N+](=O)[O-])ccc21` [Compound 6, 3-[1-(6,7-Dimethoxy-4-quinazolinyl)-4-piperidinyl]-1-ethoxycarbonylmethyl-1,2,3,4-tetrahydro-6-nitro-2,4-dioxoquinazoline], the IC50 in data set [1] was 0.462 µM.

In the case of `COc1cc2ncnc(N3CCC(n4c(=O)c5cc([N+](=O)[O-])ccc5n(Cc5ccccc5)c4=O)CC3)c2cc1OC` [Compound 8, 1-Benzyl-3-[1-(6,7-dimethoxy-4-quinazolinyl)-4-piperidinyl]-1,2,3,4-tetrahydro-6-nitro-2,4-dioxo-quinazoline], the 50% inhibitory concentration (IC50) in data set [1] stood at 0.295 µM.

For the molecule `COc1cc2ncnc(N3CCC(n4c(=O)[nH]c5ccc([N+](=O)[O-])cc5c4=O)CC3)c2cc1OC` [Compound 24, 3-[1-(6,7-Dimethoxy-4-quinazolinyl)-4-piperidinyl]-1,2,3,4-tetrahydro-6-nitro-2,4-dioxoquinazoline], in data set [1], the IC50 came out at 0.038 µM. This molecule also came in with a Ki in data set [2] of 0.015 µM.

For `COc1cc2ncnc(N3CCC(n4c(=O)c5cc(Br)ccc5n(C)c4=O)CC3)c2cc1OC` [Compound 45, 6-Bromo-3-[1-(6,7-dimethoxy-4-quinazolinyl)-4-piperidinyl]-1,2,3,4-tetrahydro-1-methyl-2,4-dioxo-quinazoline], the concentration for half-maximal inhibition (IC50) in data set [1] was 0.054 µM. The Ki in data set [2] was 0.0069 µM.

In the case of `COc1cc2ncnc(N3CCC(n4c(=O)c5cc(C)ccc5n(C)c4=O)CC3)c2cc1OC` [Compound 50, 3-[1-(6,7-Dimethoxy-4-quinazolinyl)-4-piperidinyl]-1,2,3,4-tetrahydro-1,6-dimethyl-2,4-dioxoquinazoline], the IC50 in data set [1] turned out to be 0.054 µM. For the same molecule, in data set [2], the Ki amounted to 0.012 µM.

For `CCCc1ccc2c(c1)c(=O)n(C1CCN(c3ncnc4cc(OC)c(OC)cc34)CC1)c(=O)n2C` [Compound 55, 3-[1-(6,7-Dimethoxy-4-quinazolinyl)-4-piperidinyl]-1,2,3,4-tetrahydro-1-methyl-2,4-dioxo-6-propyl-quinazoline], the IC50 in data set [1] was found to be 0.171 µM.

As to `COc1cc2ncnc(N3CCC(n4c(=O)c5cc(C(C)=O)ccc5n(C)c4=O)CC3)c2cc1OC` [Compound 63, 6-Acetyl-3-[1-(6,7-dimethoxy-4-quinazolinyl)-4-piperidinyl]-1,2,3,4-tetrahydro-1-methyl-2,4-dioxo-quinazoline], the IC50 in data set [1] was found to be 0.088 µM.

Consider `COc1ccc2c(c1)c(=O)n(C1CCN(c3ncnc4cc(OC)c(OC)cc34)CC1)c(=O)n2C` [Compound 69, 3-[1-(6,7-Dimethoxy-4-quinazolinyl)-4-piperidinyl]-1,2,3,4-tetrahydro-6-methoxy-1-methyl-2,4-dioxo-quinazoline], for which the IC50 in data set [1] was 0.157 µM. Besides, the Ki in data set [2] was determined as 0.011 µM.

With `COc1cc2nc(C)nc(N3CCC(n4c(=O)c5cc(C)ccc5n(C)c4=O)CC3)c2cc1OC` [Compound 80, 3-[1-(6,7-Dimethoxy-2-methyl-4-quinazolinyl)-4-piperidinyl]-1,2,3,4-tetrahydro-1,6-dimethyl-2,4-dioxo-quinazoline], the IC50 in data set [1] came out at 0.127 µM.

Values taken from patent US5658917A, “Isoquinolines having adenosine uptake inhibitor activity” (Kyowa Hakko Kogyo Co., Ltd., priority 1993, dated 1997).
